Reference: patent US20050245399A1, “Pyrazole derivatives as herbicidal compositions containing them” (ISHIHARA SANGYO KAISHA, LTD., priority 2004, published 2005)

Assays:
Assay type in all cases: in vivo
[1] = tested on: crabgrass (Digitaria sanguinalis L.), DIGSA; test: Test Example 2 post-emergence (foliage treatment) herbicidal activity, DIGSA; conditions: 63 g a.i./ha
In short: (§1)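 Sow in upland soil; grow to leaf stage (barnyardgrass 1.1-2.1, crabgrass 1.0-2.0, pigweed 0.1-1.5, rice 1.0-2); spray foliage at a fixed active ingredient rate in 500 L/ha water with 0.1% (v/v) spreader; rate growth control visually at 20-23 days on a 0-100% scale.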

[2] = tested on: redroot pigweed (Amaranthus retroflexus L.): AMARE; test: Test Example 1 pre-emergence herbicidal activity, AMARE; conditions: visually observed 20th to 23rd day after application
In short: (§2)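 Seeds go into pots of upland field soil; one day on, the diluted formulation (500 L/ha water) is sprayed pre-emergence. Effects are scored visually 20 to 23 days post-application as 0–100% growth control.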

[3] = tested on: rice (Oryza sativa L.), ORYSA; test: Test Example 2 post-emergence (foliage treatment) herbicidal activity, ORYSA; conditions: 63 g a.i./ha
In short: as §1

[4] = tested on: barnyardgrass (Echinochiloa oryzicola: ECHOR); test: Test Example 3 water application herbicidal activity (paddy), ECHOR; conditions: 63 g a.i./ha, water application under submerged condition at 0.5 leaf stage, visually observed 14th day after application; 0 = untreated control, 100 = complete kill
Description: (§3) Paddy field soil was put into a 1/1,000,000 ha pot and seeds of barnyardgrass (Echinochiloa oryzicola: ECHOR) and japanese bulrush (Scirpus juncoides: SCPJO) were sown and slightly covered with soil. Then the pot was left to stand still in a greenhouse in a state where the depth of flooding water was from 0.5 to 1 cm, and one day later, tubers of japanese ribbon wapato (Sagittaria pygmaea: SA GPY) were planted. Thereafter, the depth of flooding water was maintained at a level of from 3 to 4 cm, and when barnyardgrass and japanese bulrush reached a 0.5 leaf stage, an aqueous diluted solution of a wettable powder or emulsifiable concentrate having the compound of the present invention formulated in accordance with a usual formulation method, was uniformly applied under submerged condition by a pipette so that the dose of the active ingredient would be at a predetermined level. On the other hand, paddy filed soil was put into a 1/1,000,000 ha pot and puddled and leveled, and the depth of flooding water was from 3 to 4 cm. One day later, rice (Oryza sativa L.: ORYSA) of 2 leaf stage was transplanted in a depth of 3 cm. On the 4th day after the transplantation, the compound of the present invention was applied in the same manner as described above. On the 14th day after the application of the herbicide, the growth of barnyardgrass, japanese burlush and japanese ribbon wapato was visually observed and on the 21st day after the application of the herbicide, the growth of rice was visually observed, and the herbicidal effects were evaluated by growth controlling degrees (%) ranging from 0 (equivalent to the untreated control) to 100 (complete kill), whereby the results shown in Table 6, were obtained. Compound Nos. in Table 6 correspond to Compound Nos. in Table 1 and 2 given hereinbefore.

[5] = tested on: rice (Oryza sativa L.: ORYSA); test: Test Example 3 water application herbicidal activity (paddy), transplanted rice ORYSA; conditions: 63 g a.i./ha, water application 4th day after transplantation of 2 leaf stage rice, visually observed 21st day after application; 0 = untreated control, 100 = complete kill
Description: as §3

[6] = tested on: soybean (Glycine max Merr.), GLXMA; test: Test Example 2 post-emergence (foliage treatment) herbicidal activity, GLXMA; conditions: 63 g a.i./ha
In short: (§4)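 Foliar spray of formulated compound (500 L/ha dilution water, 0.1% v/v spreader) onto young potted plants at defined leaf stages. Scored 0-100% by visual inspection 20-23 d post-spray.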

[7] = tested on: corn (Zea mays L.): ZEAMX; test: Test Example 1 pre-emergence herbicidal activity, ZEAMX; conditions: visually observed 20th to 23rd day after application
In short: as §2

[8] = tested on: corn (Zea mays L.), ZEAMX; test: Test Example 2 post-emergence (foliage treatment) herbicidal activity, ZEAMX; conditions: 63 g a.i./ha
In short: as §4

[9] = tested on: velvetleaf (Abutilon theophrasti): ABUTH; test: Test Example 1 pre-emergence herbicidal activity, ABUTH; conditions: visually observed 20th to 23rd day after application
In short: as §2

[10] = tested on: rice (Oryza sativa L.): ORYSA; test: Test Example 1 pre-emergence herbicidal activity, ORYSA; conditions: visually observed 20th to 23rd day after application
In short: as §2

[11] = tested on: prickly sida (Sida spinosa L.): SEDSP; test: Test Example 1 pre-emergence herbicidal activity, SIDSP; conditions: visually observed 20th to 23rd day after application
In short: as §2

[12] = tested on: wheat (Triticum aestivum L.), TRZAX; test: Test Example 2 post-emergence (foliage treatment) herbicidal activity, TRZAX; conditions: 63 g a.i./ha
In short: as §4

[13] = tested on: soybean (Glycine max Merr.): GLXMA; test: Test Example 1 pre-emergence herbicidal activity, GLXMA; conditions: visually observed 20th to 23rd day after application
In short: as §2

[14] = tested on: barnyardgrass (Echinochloa crus-galli L.): ECHCG; test: Test Example 1 pre-emergence herbicidal activity, ECHCG; conditions: visually observed 20th to 23rd day after application
In short: as §2

[15] = tested on: japanese bulrush (Scirpus juncoides: SCPJO); test: Test Example 3 water application herbicidal activity (paddy), SCPJO; conditions: 63 g a.i./ha, water application under submerged condition at 0.5 leaf stage, visually observed 14th day after application; 0 = untreated control, 100 = complete kill
Description: as §3

[16] = tested on: green foxtail (Setaria viridis L.): SETVI; test: Test Example 1 pre-emergence herbicidal activity, SETVI; conditions: visually observed 20th to 23rd day after application
In short: as §2

[17] = tested on: japanese ribbon wapato (Sagittaria pygmaea: SA GPY); test: Test Example 3 water application herbicidal activity (paddy), SAGPY; conditions: 63 g a.i./ha, water application under submerged condition, tubers planted, visually observed 14th day after application; 0 = untreated control, 100 = complete kill
Description: as §3

[18] = tested on: crabgrass (Digitaria sanguinalis L.): DIGSA; test: Test Example 1 pre-emergence herbicidal activity, DIGSA; conditions: visually observed 20th to 23rd day after application
In short: as §2

[19] = tested on: velvetleaf (Abutilon theophrasti), ABUTH; test: Test Example 2 post-emergence (foliage treatment) herbicidal activity, ABUTH; conditions: 63 g a.i./ha
In short: as §4

[20] = tested on: wheat (Triticum aestivum L.): TRZAX; test: Test Example 1 pre-emergence herbicidal activity, TRZAX; conditions: visually observed 20th to 23rd day after application
In short: as §2

[21] = tested on: green foxtail (Setaria viridis L.), SETVI; test: Test Example 2 post-emergence (foliage treatment) herbicidal activity, SETVI; conditions: 63 g a.i./ha
In short: as §4

[22] = tested on: barnyardgrass (Echinochloa crus-galli L.), ECHCG; test: Test Example 2 post-emergence (foliage treatment) herbicidal activity, ECHCG; conditions: 63 g a.i./ha
In short: as §1

[23] = tested on: prickly sida (Sida spinosa L.), SIDSP; test: Test Example 2 post-emergence (foliage treatment) herbicidal activity, SIDSP; conditions: 63 g a.i./ha
In short: as §4

[24] = tested on: redroot pigweed (Amaranthus retroflexus L.), AMARE; test: Test Example 2 post-emergence (foliage treatment) herbicidal activity, AMARE; conditions: 63 g a.i./ha
In short: as §1

Row | Compound | growth controlling degree, DIGSP [1] | Pre-emergence Herbicidal Activity AMARE (growth controlling degree) ([2]; Rate 63 g a.i./ha) | growth controlling degree, ORYSA [3] | growth controlling degrees (%) ECHOR [4] | growth controlling degrees (%) ORYSA [5] | growth controlling degree, GLXMA [6] | Pre-emergence Herbicidal Activity ZEAMX (growth controlling degree) ([7]; Rate 63 g a.i./ha) | growth controlling degree, ZEAMX [8] | Pre-emergence Herbicidal Activity ABUTH (growth controlling degree) ([9]; Rate 63 g a.i./ha) | Pre-emergence Herbicidal Activity ORYSA (growth controlling degree) ([10]; Rate 63 g a.i./ha) | Pre-emergence Herbicidal Activity SIDSP (growth controlling degree) ([11]; Rate 63 g a.i./ha) | growth controlling degree, TRZAX [12] | Pre-emergence Herbicidal Activity GLXMA (growth controlling degree) ([13]; Rate 63 g a.i./ha) | Pre-emergence Herbicidal Activity ECHCG (growth controlling degree) ([14]; Rate 63 g a.i./ha) | growth controlling degrees (%) SCPJO [15] | Pre-emergence Herbicidal Activity SETVI (growth controlling degree) ([16]; Rate 63 g a.i./ha) | growth controlling degree, ABUTH [19] | growth controlling degree, SETVI [21] | growth controlling degree, ECHCO [22] | growth controlling degree, SIDSP [23] | also measured
1 | Cn1nc(-c2c(F)cc(Cl)c(OC(F)F)c2NS(C)(=O)=O)c(Cl)c1OC(F)F [Compound 1-84] | 0% | 70% | 10% | 60% | 30% | 50% | 0% | 20% | 0% | 10% | 0% | 0% | 0% | 0% | 90% | 20% | 80% | 10% | 20% | 70% | growth controlling degrees (%) SAGPY [17]: 95%; Pre-emergence Herbicidal Activity DIGSP (growth controlling degree) ([18]; Rate 63 g a.i./ha): 50%; Pre-emergence Herbicidal Activity TRZAX (growth controlling degree) ([20]; Rate 63 g a.i./ha): 0%
2 | [3-chloro-6-[4-chloro-5-(difluoromethoxy)-1-methyl-1H-pyrazol-3-yl]-5-fluoro-2-methoxyphenyl]2-propynyl-formamide [Compound 1-7] | 10% |  | 40% | 95% | 20% | 50% |  | 40% |  |  |  | 10% |  |  | 60% |  | 100% | 70% | 50% | 100% | Pre-emergence Herbicidal Activity AMARE (growth controlling degree) ([2]; Rate 125 g a.i./ha): 100%; Pre-emergence Herbicidal Activity ZEAMX (growth controlling degree) ([7]; Rate 125 g a.i./ha): 0%; Pre-emergence Herbicidal Activity ABUTH (growth controlling degree) ([9]; Rate 125 g a.i./ha): 80%; Pre-emergence Herbicidal Activity ORYSA (growth controlling degree) ([10]; Rate 125 g a.i./ha): 20%; Pre-emergence Herbicidal Activity SIDSP (growth controlling degree) ([11]; Rate 125 g a.i./ha): 90%; Pre-emergence Herbicidal Activity GLXMA (growth controlling degree) ([13]; Rate 125 g a.i./ha): 10%; Pre-emergence Herbicidal Activity ECHCG (growth controlling degree) ([14]; Rate 125 g a.i./ha): 70%; Pre-emergence Herbicidal Activity SETVI (growth controlling degree) ([16]; Rate 125 g a.i./ha): 95%; growth controlling degrees (%) SAGPY [17]: 0%; Pre-emergence Herbicidal Activity DIGSP (growth controlling degree) ([18]; Rate 125 g a.i./ha): 100%; Pre-emergence Herbicidal Activity TRZAX (growth controlling degree) ([20]; Rate 125 g a.i./ha): 20%
3 | Cn1nc(-c2c(F)cc(Cl)c(OC(F)F)c2N(C=O)Cc2ccccc2)c(Cl)c1OC(F)F [Compound 1-86] | 30% |  | 0% | 60% | 10% | 40% |  | 0% |  |  |  | 0% |  |  | 50% |  | 0% | 10% | 0% | 60% | Pre-emergence Herbicidal Activity AMARE (growth controlling degree) ([2]; Rate 125 g a.i./ha): 30%; Pre-emergence Herbicidal Activity ZEAMX (growth controlling degree) ([7]; Rate 125 g a.i./ha): 0%; Pre-emergence Herbicidal Activity ABUTH (growth controlling degree) ([9]; Rate 125 g a.i./ha): 0%; Pre-emergence Herbicidal Activity ORYSA (growth controlling degree) ([10]; Rate 125 g a.i./ha): 0%; Pre-emergence Herbicidal Activity SIDSP (growth controlling degree) ([11]; Rate 125 g a.i./ha): 0%; Pre-emergence Herbicidal Activity GLXMA (growth controlling degree) ([13]; Rate 125 g a.i./ha): 0%; Pre-emergence Herbicidal Activity ECHCG (growth controlling degree) ([14]; Rate 125 g a.i./ha): 0%; growth controlling degree, AMARE [24]: 100%; Pre-emergence Herbicidal Activity SETVI (growth controlling degree) ([16]; Rate 125 g a.i./ha): 0%; Pre-emergence Herbicidal Activity DIGSP (growth controlling degree) ([18]; Rate 125 g a.i./ha): 0%; Pre-emergence Herbicidal Activity TRZAX (growth controlling degree) ([20]; Rate 125 g a.i./ha): 0%
4 | CCCOC(=O)Nc1c(OC)c(Cl)cc(F)c1-c1nn(C)c(OC(F)F)c1Cl [Compound 1-72] | 80% | 100% | 60% | 100% |  | 70% | 10% | 40% | 100% | 40% | 100% | 20% | 0% | 98% | 60% | 100% | 100% |  | 80% | 100% | growth controlling degree, AMARE [24]: 100%; growth controlling degrees (%) SAGPY [17]: 100%; Pre-emergence Herbicidal Activity DIGSP (growth controlling degree) ([18]; Rate 63 g a.i./ha): 100%; Pre-emergence Herbicidal Activity TRZAX (growth controlling degree) ([20]; Rate 63 g a.i./ha): 40%
5 | COc1c(Cl)cc(F)c(-c2nn(C)c(OC(F)F)c2Cl)c1NC(=O)OCC(C)C [Compound 1-64] | 70% | 100% | 30% | 100% | 40% | 50% | 0% | 30% | 60% | 10% | 80% | 30% | 0% | 40% | 70% | 80% | 100% | 100% | 90% | 100% | growth controlling degree, AMARE [24]: 100%; Pre-emergence Herbicidal Activity DIGSP (growth controlling degree) ([18]; Rate 63 g a.i./ha): 90%; Pre-emergence Herbicidal Activity TRZAX (growth controlling degree) ([20]; Rate 63 g a.i./ha): 10%
